Measurements: patent US6872850B2, “Small molecule inhibitors of secretion of proteins encoded by ARE-mRNAs” (Message Pharmaceuticals, priority 2001, dated 2005)
Counter-ions that a name gives are not always drawn.

Columns and labels:
3′ UTR of the TNFα gene = assay: cell-based luciferase reporter assay, 5B cell line (luciferase gene with entire 3′ UTR of the TNFα gene); design: species or system mouse
[1] = tested on: control cell line 3B (Raw 264.7, CMV-luciferase); assay: luciferase reporter assay, control 3B cell line (luciferase without 3′ UTR of TNFα); format: cell-based, mouse
Experimental: The candidate compounds were tested in a high-throughput, cell-based luciferase reporter assay. For this assay, a commercially available mouse macrophage Raw 264.7 cell line was stably transfected with a construct containing the CMV promoter operably linked to the luciferase gene which was modified using standard molecular biology techniques to contain the entire 3′ UTR of the TNFα gene. This 3′ UTR is important for the stability and translation of TNFα in cells. To control for effects of candidate compounds that are not specific for TNFα, a control cell line, called “3B,” was generated by stably transfecting the 264.7 cell line with a commercially available construct containing the luciferase gene (without the addition of the heterologous 3′ UTR of the TNFα gene) under the regulation of the CMV promoter.
Both the 3B and 5B cell lines were incubated in the presence of 10 μM of a candidate compound for one hour. Then, lipopolysaccharide (LPS) was added to stimulate TNFα secretion. Luciferase activity was measured by determining the luminescence intensity due to the reaction of lucifern, ATP, Mg^2+, and molecular O2 (see, for example, Ausubel et al., supra). The luciferase activity in a cell incubated with a candidate compound was reported as a percentage of the luciferase activity for the corresponding cell incubated with DMSO vehicle only. […]

TNFα = assay: ELISA of TNFα secreted into the media after LPS; format: cell-based; conditions: for effect on amount of secreted TNFα (direct TNFα secretion assay), in words: after LPS stimulation
Outline: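 Candidate compounds were tested directly for their ability to lower the amount of TNFα that cells secrete. A standard ELISA quantified TNFα released into the culture media. Each compound's effect is given as a percentage of the TNFα secreted by control cells that received only DMSO vehicle.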

Row | Molecule | effect on luciferase activity in the 5B cell line (luciferase assay), in words (3′ UTR of the TNFα gene) | effect on luciferase activity in the 3B control cell line, in words [1] | effect on amount of secreted TNFα (direct TNFα secretion assay), in words (TNFα) | Luciferase 5B (% of DMSO control) (3′ UTR of the TNFα gene; 10 μM compound, 1 h, then LPS, 5B cell line) | Luciferase 5B/3B (% of DMSO control 5B)/(% of DMSO control 3B) (3′ UTR of the TNFα gene; 10 μM compound, ratio of 5B to control 3B cell line) | TNFα Secretion (% of DMSO control) (TNFα; 10 μM compound, 1 h, then LPS)
1 | C/C(=N\NC(=N)N)c1ccc(C(=O)N[C@@H](Cc2ccccc2)C(=O)NCCNC(=O)[C@H](Cc2ccccc2)NC(=O)c2ccc(/C(C)=N/NC(=N)N)cc2)cc1 [MES 10094, (E,E)-Bisguanylhydrazone of 1-[(S)-N-(4-Acetylbenzoyl)-2-amino-3-phenylpro-panoyl]-4-[(S)-N-(4-acetylbenzoyl)-2-amino-3-phenylpropanoyl]-1,4-diaza-butane bis hydrochloride] | strongly inhibited | only weakly inhibited | inhibited TNFα secretion | – | – | –
2 | (Z,Z)-Bisguanylhydrazone of 1-[(S)-N-(4-benzoylbenzoyl)-2-amino-3-phenylpropanoyl]-4-[(2S)-N-(4-benzoylbenzoyl)-2-amino-4-methylpentanoyl]-1,4-piperazine bis trifluoroacetate [MES 10165] | inhibited TNFα secretion | – | inhibited TNFα secretion | 37 % of DMSO control | 63 (% of DMSO control 5B)/(% of DMSO control 3B) | 36 % of DMSO control
